Measurements reported in patent US20140357655A1, “SPIROINDOLINE DERIVATIVES AS GONADOTROPIN- RELEASING HORMONE RECEPTOR ANTAGONISTS” (Bayer Intellectual Property GmbH, priority 2012, published 2014).
Where two headings read alike, the source gives them in different places. Square brackets hold non-standard residues; d marks the D form. Peptide text beside a SMILES is read from it. dPhe(4-Cl) = N[C@H](Cc1ccc(Cl)cc1)C(=O)O; d2Nal = N[C@H](Cc1ccc2ccccc2c1)C(=O)O; dCit = NC(=O)NCCC[C@@H](N)C(=O)O; d3Pal = N[C@H](Cc1cccnc1)C(=O)O

Columns and labels:
[1] = Serum compound levels in ovariectomized rats; assay type: in vivo; conditions: female, rat, read-out: serum compound level
Description: (§1) Female adult rats were ovariectomized surgically and they were allowed to recover for at least one week. The animals received 1 mg/kg, 10 mg/kg or 30 mg/kg of Example 14.1 by single per oral administration. For comparison reasons a vehicle control and a positive control, 0.1 mg/kg cetrorelix i.p., were given once. At 0 min, 15 min, 30 min, 1 hour, 2 hours, 6 hours and 24 hours after compound administration blood was taken from the retro orbital plexus (n=6 per blood withdrawal) for the measurement of serum LH and serum compound levels.

[2] = target: T1, human GnRH receptor (Homo sapiens, UniProt P30968); test: IP-One HTRF assay with buserelin (at EC80) stimulation; assay type: cell-based; conditions: CHO cells stably expressing human GnRH receptor, read-out: Potency in IP-One HTRF assay, given as IC50
T1 sequence (P30968 1-328): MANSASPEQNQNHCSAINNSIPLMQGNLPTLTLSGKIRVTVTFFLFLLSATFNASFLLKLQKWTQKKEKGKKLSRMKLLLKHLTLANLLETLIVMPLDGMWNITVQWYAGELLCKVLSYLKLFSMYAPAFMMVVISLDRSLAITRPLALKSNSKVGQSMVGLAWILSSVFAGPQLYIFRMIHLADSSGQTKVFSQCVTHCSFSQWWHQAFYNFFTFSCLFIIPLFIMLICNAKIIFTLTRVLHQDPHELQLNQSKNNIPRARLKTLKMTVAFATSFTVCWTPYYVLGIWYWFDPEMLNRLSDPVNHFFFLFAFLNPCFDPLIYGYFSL
Summary of the method: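 Ten-point duplicate titrations (20 μM to 1 nM) were fitted by 4-parameter model to normalized 665/620 nm HTRF ratios, 0% = no compound, 100% = no agonist. Assay measured IP1 accumulation in human GnRH-R CHO cells stimulated 1 h at 37° C with EC80 buserelin, then lysed 1 h at 22° C.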

[3] = target: T2, human GnRHR (Homo sapiens, UniProt P30968); test: Tag-Lite receptor binding assay; conditions: Hek293 cells transiently transfected with human GnRHR; green-labelled GnRHR binding peptide; read-out: Potency in receptor binding assay using TAG-LITE technology, given as IC50
T2 construct: host or cells: HEK293 (transient transfection), purchased as frozen labelled cells
T2 sequence (P30968 1-328): T1 sequence (P30968 1-328)
Source text: This binding assay is based on the fluorescence resonance energy transfer between fluorescence donor labelled human GnRHR and a green-labelled GnRHR binding peptide. Compounds interfering with the ligand binding side of the human GnRHR will replace the labelled peptide resulting in a signal decrease. The assay principle was established by Cisbio Bioassays (Bagnols-sur-Cèze Cedex, France) and further details are available on their homepage.
The assay procedure was further optimized for use in-house with reduced assay volumes. Frozen Hek293 cells, transiently transfected with human GnRHR and Terbium-labelling of the receptor, were supplied by Cisbio Bioassays as well as Tag-Lite buffer and green-labelled GnRHR binding peptide. Cells were thawed and transferred to cold Tag-Lite buffer. A volume of 8 μl of this cell suspension were added to 100 nl of a 160-fold concentrated solution of the test compound in DMSO pre-dispensed in a well of a white low-volume 384-well microtiter plate (Greiner Bio-One, Frickenhausen, Germany). The mixture was incubated for 5 min at room temperature. In the next step either 4 μl Tag-Lite buffer or as control 4 μl of an exceeding amount unlabelled binding peptide in Tag-Lite buffer were transferred to the mixture. The green-labelled GnRHR binding peptide was added in a final step at EC50 in a volume of 4 μl Tag-Lite buffer. After an incubation of 1 h at room temperature plates were measured in a microplate reader, e.g. a PHERAstar (BMG Labtechnologies, Offenburg, Germany) by using a specific optic module.
A ratio from the fluorescence emissions at 520 nm (green fluorescence) and at 490 nm (background signal of Terbium-labelled GnRHR) was calculated and the data were normalized (reaction without test compound=0% inhibition of binding of green-labelled peptide; reaction without test compound with exceeding amount unlabelled binding peptide=100% inhibition of binding of green-labelled peptide). On the same microtiter plate, compounds were tested at 10 different concentrations in the range of 12.5 μM to 0.64 nM (12.5 μM, 4.2 μM, 1.4 μM, 0.46 μM, 0.15 μM, 51 nM, 17 nM, 5.7 nM, 1.9 nM and 0.64 nM; dilution series prepared before the assay at the level of the 160-fold conc. stock solutions by serial 1:3 dilutions in 100% DMSO) in duplicate values for each concentration. By using an in-house software, the IC50 values were calculated by a 4 parameter fit.

[4] = system: serum LH; test: LH suppression in the ovariectomized rat; assay type: in vivo; conditions: ovariectomized rats; for LH suppression: at 6 hours
Source text: The in vivo potency of GnRH antagonists can be quantified by a LH suppression test in ovariectomized rats. GnRH triggers the LH release from the pituitary mediated by GnRH receptors. Ovarectomy of adult female rats results in elevated levels of circulating LH due to a lack of negative feedback by gonadal steroids. GnRH antagonists suppress the release of LH and accordingly suppression of LH levels can be used to quantify the in vivo potency of GnRH antagonists.
as §1

Row | SMILES | concentration at 6 h ([1]; 1 mg/kg per oral) [nM] | concentration at 6 h ([1]; 10 mg/kg per oral) [nM] | concentration at 6 h ([1]; 30 mg/kg per oral) [nM] | IC50 [2] [nM] | IC50 [3] [nM] | LH suppression ([4]; 1 mg/kg single per oral) [%] | LH suppression ([4]; 10 mg/kg single per oral) [%] | LH suppression ([4]; 30 mg/kg single per oral) [%] | in vivo activity (conclusion in words) ([4]; per oral) | LH suppression ([4]; 0.1 mg/kg i.p.) [%]
1 | O=C(NCc1ncccc1Cl)c1ccc2c(c1)C1(CCS(=O)(=O)CC1)C(C1CC1)N2S(=O)(=O)c1ccc(F)cc1 (single isomer, unassigned) [Example 14.1, N-[(3-Chloropyridin-2-yl)methyl]-2-cyclopropyl-1-[(4-fluorophenyl)sulfonyl]-1,2,2′,3′,5′,6′-hexahydrospiro[indole-3,4′-thiopyran]-5-carboxamide 1′,1′-dioxide] | 40 | 770 ± 200 | 1840 ± 530 | 104 | 20 | 11 | 89 | 88 | orally active GnRH antagonist in vivo | –
2 | CC(=O)N[C@H](Cc1ccc2ccccc2c1)C(=O)N[C@H](Cc1ccc(Cl)cc1)C(=O)N[C@H](Cc1cccnc1)C(=O)N[C@@H](CO)C(=O)N[C@@H](Cc1ccc(O)cc1)C(=O)N[C@H](CCCNC(N)=O)C(=O)N[C@@H](CC(C)C)C(=O)N[C@@H](CCCNC(=N)N)C(=O)N1CCC[C@H]1C(=O)N[C@H](C)C(N)=O [cetrorelix, reference compound] (Ac-[d2Nal][dPhe(4-Cl)][d3Pal]SY[dCit]LRP[dA]-NH2) | – | – | – | – | – | – | – | – | – | 91
